In patent US20110224226A1, “COMPOSITIONS AND METHODS FOR INCREASING BLOOD PLATELET LEVELS IN HUMANS” (AKARX, Inc., priority 2006, published 2011):

Molecular target: T1, human c-Mpl (Homo sapiens, UniProt P40238)
T1 construct: endogenous in cells; host or cells: human platelets
T1 sequence (P40238 26-635): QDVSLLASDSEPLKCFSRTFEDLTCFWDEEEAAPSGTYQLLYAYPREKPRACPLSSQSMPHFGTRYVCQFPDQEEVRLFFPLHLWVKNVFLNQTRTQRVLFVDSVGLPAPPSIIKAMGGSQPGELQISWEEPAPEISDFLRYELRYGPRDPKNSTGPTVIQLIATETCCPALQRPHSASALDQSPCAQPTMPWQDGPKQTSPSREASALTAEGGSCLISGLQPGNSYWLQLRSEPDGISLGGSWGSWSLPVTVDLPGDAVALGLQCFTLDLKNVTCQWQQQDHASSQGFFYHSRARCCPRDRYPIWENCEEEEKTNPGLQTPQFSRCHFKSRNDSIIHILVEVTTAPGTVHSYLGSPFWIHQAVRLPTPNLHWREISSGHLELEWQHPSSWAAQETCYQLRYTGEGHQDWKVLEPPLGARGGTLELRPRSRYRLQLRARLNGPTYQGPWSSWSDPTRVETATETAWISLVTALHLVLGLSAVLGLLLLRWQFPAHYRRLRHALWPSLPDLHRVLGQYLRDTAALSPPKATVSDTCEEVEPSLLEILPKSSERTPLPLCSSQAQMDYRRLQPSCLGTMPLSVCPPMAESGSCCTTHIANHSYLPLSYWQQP
Assay: interference with rhTPO binding to human platelets
Conditions: concentrations up to 100 μM

interference with rhTPO binding to human platelets: does not interfere
SMILES: O=C(Nc1nc(-c2cc(Cl)cs2)c(N2CCN(C3CCCCC3)CC2)s1)c1cnc(N2CCC(C(=O)O)CC2)c(Cl)c1 [Formula I, 1-(3-chloro-5-{[4-(4-chlorothiophen-2-yl)-5-(4-cyclohexylpiperazin-1-yl)thiazol-2-yl]carbamoyl}pyridin-2-yl)piperadine-4-carboxylic acid]
